According to the supplement of paper PMC10307832:

Experiments:
Experiment in all cases: relative viability (nuclei count vs DMSO), 5 days (fraction); higher = more cells survive
XMD8-85 = compound: CN1CCN(CC1)C2=CC(=C(C=C2)NC3=NC=C4C(=N3)N(C5=CC=CC=C5C(=O)N4C)C)OC [XMD8-85]
Method in brief: (§1)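 Five library-drug doses, separated by factors of √10, were pinned into 1536-well plates holding lung cancer cell lines after an overnight stay at 37 °C. Cells were fixed, permeabilised and Hoechst-stained in one step after 5 days without medium change, then imaged at 4×. Viability compares treated-well with vehicle-well nuclei, counted in MetaXpress, as a median across plates. Passing plates had control CV below 25% and at least one doubling.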

4EGI-1 = compound: O=C(O)C(Cc1ccccc1[N+](=O)[O-])=NNc1nc(-c2ccc(Cl)c(Cl)c2)cs1 (mixture of isomers) [4EGI-1]
Method in brief: as §1

XMD8-85 + Navitoclax = compound: CN1CCN(CC1)C2=CC(=C(C=C2)NC3=NC=C4C(=N3)N(C5=CC=CC=C5C(=O)N4C)C)OC [XMD8-85] + CC1(C)CCC(c2ccc(Cl)cc2)=C(CN2CCN(c3ccc(C(=O)NS(=O)(=O)c4ccc(N[C@H](CCN5CCOCC5)CSc5ccccc5)c(S(=O)(=O)C(F)(F)F)c4)cc3)CC2)C1 [Navitoclax] (partner 0.5 µM)
Method in brief: (§2)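 Values are medians from duplicate plates. Each reflects relative viability, defined as the nuclei count of treated wells over that of vehicle wells. Lung cancer cell lines in 1536-well plates were pin-tool dosed one day after seeding with one drug alone or with a fixed anchor-drug dose plus five library-drug doses (not always all listed) in √10 steps, then fixed, stained and imaged at 4× after 5 days.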

4EGI-1 + Phenformin = compound: O=C(O)C(Cc1ccccc1[N+](=O)[O-])=NNc1nc(-c2ccc(Cl)c(Cl)c2)cs1 (mixture of isomers) [4EGI-1] + N=C(N)NC(=N)NCCc1ccccc1 [Phenformin] (partner 250 µM)
Method in brief: as §2

Cell Line	relative viability (XMD8-85; 0.08 µM)	relative viability (XMD8-85; 0.253 µM)	relative viability (XMD8-85; 0.8 µM)	relative viability (XMD8-85; 2.53 µM)	relative viability (XMD8-85; 8 µM)	relative viability (4EGI-1; 0.5 µM)	relative viability (4EGI-1; 5 µM)	relative viability (4EGI-1; 15.81 µM)	relative viability (4EGI-1; 50 µM)	relative viability (XMD8-85 + Navitoclax; first compound 0.08 µM)	relative viability (XMD8-85 + Navitoclax; first compound 0.253 µM)	relative viability (XMD8-85 + Navitoclax; first compound 0.8 µM)	relative viability (XMD8-85 + Navitoclax; first compound 2.53 µM)	relative viability (XMD8-85 + Navitoclax; first compound 8 µM)	relative viability (4EGI-1 + Phenformin; first compound 0.5 µM)	relative viability (4EGI-1 + Phenformin; first compound 1.581 µM)	relative viability (4EGI-1 + Phenformin; first compound 5 µM)	relative viability (4EGI-1 + Phenformin; first compound 15.81 µM)	relative viability (4EGI-1 + Phenformin; first compound 50 µM)	relative viability (4EGI-1; 1.581 µM)
LCLC-97TM1	0.915	0.991	1.24	1.09	1.05	1.01	1.19	0.963	0.632	0.299	0.474	0.442	0.329	0.796	0.456	0.343	0.437	0.404	0.375	–
LK-2	0.97	1.08	0.928	0.67	0.616	1.11	1.29	1.08	0.854	0.74	0.915	0.883	0.772	0.699	0.464	–	0.639	0.437	0.0912	–
LOU-NH91	0.993	0.97	0.939	1.09	0.734	1.02	1	0.764	0.751	0.69	0.764	0.639	0.7	0.546	0.742	–	0.703	0.456	0.534	–
LU99A	0.895	1	1	0.973	0.831	0.989	0.999	0.885	0.564	0.857	0.689	0.888	0.892	0.44	1.03	0.595	0.924	0.885	0.391	0.859
LXF-289	0.996	1.05	0.997	1.06	0.979	1.03	0.98	0.864	0.573	0.831	0.867	0.951	0.974	0.811	0.535	0.514	0.513	0.485	0.291	1.01
NCI-H23	0.917	0.95	0.982	1	0.72	1.1	1.06	1.03	0.298	0.878	1.22	0.686	0.657	0.544	0.884	–	0.763	0.826	0.706	–
NCI-H322M	0.906	0.937	0.939	0.97	0.621	0.94	1.05	0.75	0.5	1.21	1.1	1.34	1.2	1.05	0.794	–	0.891	0.689	0.301	–
NCI-H441	1.09	0.92	1.2	1.29	0.801	1.22	1.13	0.791	0.307	0.664	0.565	1.01	1.11	0.278	1.04	0.76	0.919	0.785	0.183	0.868
NCI-H460	0.998	1.01	1.02	0.997	0.651	1.03	1.06	0.847	0.25	1.07	1.21	1.14	1.22	0.415	0.549	–	0.593	0.243	0.0399	–
NCI-H520	0.99	0.975	1.03	1.04	0.813	1.24	1.16	0.917	0.64	1.2	1.19	1.05	1.06	0.829	0.866	0.589	0.703	0.669	0.191	0.952
NCI-H596	0.946	0.942	1.03	0.987	0.696	1.19	1.14	0.954	0.594	1.04	1.13	1.07	0.68	0.377	0.859	0.732	1.01	0.961	0.705	0.788
NCI-H647	0.991	0.912	1.01	1.06	0.758	1.01	1.1	0.855	0.446	1.35	1.19	1.27	1.14	0.556	0.562	–	0.819	0.419	0.141	–
NCI-H727	0.883	0.9	0.958	0.713	0.62	1.06	0.909	0.795	0.59	0.466	0.365	–	0.379	0.247	0.648	0.518	0.511	0.572	0.332	0.991
NCI-H838	0.951	1.02	0.997	0.937	0.754	1.03	1.02	0.912	0.342	1.15	1.13	1.16	1.15	0.536	0.605	–	0.623	0.487	0.153	–
NCI-H1355	0.995	0.941	1.01	1.13	0.749	1.04	0.948	0.862	0.566	1.06	1.01	0.977	0.862	0.804	0.469	0.439	0.45	0.413	0.33	0.93
NCI-H1395	0.893	0.884	0.889	1.01	0.561	1.02	1.2	0.929	0.614	1.09	1.18	1.3	1.03	1.02	0.455	0.362	0.508	0.399	0.34	–

Cell Line	relative viability (XMD8-85; 0.08 µM)	relative viability (XMD8-85; 0.253 µM)	relative viability (XMD8-85; 0.8 µM)	relative viability (XMD8-85; 2.53 µM)	relative viability (XMD8-85; 8 µM)	relative viability (4EGI-1; 0.5 µM)	relative viability (4EGI-1; 5 µM)	relative viability (4EGI-1; 15.81 µM)	relative viability (4EGI-1; 50 µM)	relative viability (XMD8-85 + Navitoclax; first compound 0.08 µM)	relative viability (XMD8-85 + Navitoclax; first compound 0.253 µM)	relative viability (XMD8-85 + Navitoclax; first compound 0.8 µM)	relative viability (XMD8-85 + Navitoclax; first compound 2.53 µM)	relative viability (XMD8-85 + Navitoclax; first compound 8 µM)	relative viability (4EGI-1 + Phenformin; first compound 0.5 µM)	relative viability (4EGI-1 + Phenformin; first compound 1.581 µM)	relative viability (4EGI-1 + Phenformin; first compound 5 µM)	relative viability (4EGI-1 + Phenformin; first compound 15.81 µM)	relative viability (4EGI-1 + Phenformin; first compound 50 µM)	relative viability (4EGI-1; 1.581 µM)
NCI-H1437	1	1.01	1.01	0.99	0.747	1.04	0.947	0.592	0.326	1.16	1.16	1.13	0.979	0.591	0.272	0.298	0.305	0.262	0.214	0.969
NCI-H1650	0.974	0.874	0.946	0.889	0.297	1.12	1.03	0.419	0.223	1.15	1.32	1.29	1.16	0.439	0.456	–	0.401	0.284	0.206	–
NCI-H1651	1.06	0.983	0.978	0.959	0.926	1.03	1.01	0.95	0.753	1.09	1	1.13	0.976	0.849	0.345	0.295	0.35	0.267	0.231	0.906
NCI-H1666	0.965	0.963	0.919	0.971	0.998	1.05	1.09	0.781	0.436	0.932	1	0.865	0.729	0.727	0.537	0.554	0.563	0.51	0.398	0.942
NCI-H1734	0.946	0.988	1.11	1.08	0.758	1.06	1.14	0.831	0.353	0.806	0.888	0.78	0.952	0.504	0.477	0.341	0.43	0.352	0.256	0.949
NCI-H1755	1.02	1.08	0.96	1.02	1.03	1.04	0.957	0.896	0.622	1.03	1.04	0.953	0.984	0.838	0.699	0.636	0.646	0.625	0.397	1.04
NCI-H1793	0.82	0.906	0.938	1.2	0.825	1.05	1.31	0.765	0.439	0.334	0.348	0.962	1.27	0.351	0.375	0.47	0.418	0.367	0.297	0.95
NCI-H1915	0.975	1	1.01	1.03	0.883	1.02	1.05	0.972	0.633	0.859	0.817	0.791	0.771	0.622	0.367	0.35	0.374	0.343	0.233	0.738
NCI-H1944	0.873	0.993	1.02	1.22	0.973	1.03	0.996	0.738	0.574	1.13	1.1	1.18	1.16	1.12	0.206	–	0.207	0.185	0.191	–
NCI-H1975	0.989	0.92	0.98	0.962	0.638	1.02	1	0.996	0.768	1.25	1.12	1.09	1.09	0.532	0.444	0.356	0.407	0.442	0.361	0.904
NCI-H1993	0.861	0.965	1.01	1.12	0.89	1	0.908	0.616	0.573	0.848	–	0.885	0.968	0.766	0.536	0.452	0.481	0.631	0.5	0.847
NCI-H2009	0.967	0.987	1	0.97	0.605	1.05	1.07	1.02	0.24	1.13	1.12	1.19	1.08	0.717	0.55	0.494	0.528	0.366	0.18	1.02
NCI-H2023	0.837	1.02	0.99	1	0.559	1.27	1.1	0.376	0.129	0.924	1.08	1.13	0.997	–	0.503	–	0.425	0.281	0.117	–
NCI-H2085	0.945	0.966	0.995	0.935	0.856	1.06	1.03	0.799	0.663	1.16	1.11	1.12	1.04	0.789	0.8	0.795	0.823	0.536	0.404	1.01
NCI-H2087	1.07	0.984	1.09	1.05	0.811	1.24	0.975	0.694	0.256	1.06	1.01	1.17	1.05	0.772	0.498	0.468	0.435	0.394	0.193	1.05
NCI-H2126	0.96	1.02	1.03	1.11	0.821	1.05	1.05	0.837	0.79	0.946	0.935	0.899	0.897	0.839	0.553	–	0.569	0.488	0.463	0.937
